Results from patent US10681909B2, “Herbicidal triazoles” (FMC Corporation, priority 2014, dated 2020).

How the values were obtained:
[1] = test system: foxtail, giant; assay: Test A preemergence; type: in vivo, Setaria faberii; conditions: 0 to 100 scale (0 no effect, 100 complete control)
Description: (§1) Seeds of plant species selected from barnyardgrass (Echinochloa crus-galli), crabgrass, large (large crabgrass, Digitaria sanguinalis), kochia (Kochia scoparia), ragweed (common ragweed, Ambrosia elatior), foxtail, giant (giant foxtail, Setaria faberii), morningglory (Ipomoea spp.), pigweed (Amaranthus retroflexus), velvetleaf (Abutilon theophrasti), ryegrass, Italian (Italian ryegrass, Lolium multiflorum), wheat (Triticum aestivum), and corn (Zea mays) were planted into a blend of loam soil and sand and treated preemergence with a directed soil spray using test chemicals formulated in a non-phytotoxic solvent mixture which included a surfactant. At the same time, plants selected from these crop and weed species and also blackgrass (Alopecurus myosuroides), and galium (catchweed bedstraw, Galium aparine), were planted in pots containing the same blend of loam soil and sand and treated with postemergence applications of test chemicals formulated in the same manner. Plants ranged in height from 2 to 10 cm and were in the one- to two-leaf stage for the postemergence treatment. […] A dash (-) response means no test result.

[2] = test system: galium; assay: Test A postemergence; type: in vivo, Galium aparine; conditions: 0 to 100 scale (0 no effect, 100 complete control), approx. 10 d
Description: (§2) Seeds of plant species selected from barnyardgrass (Echinochloa crus-galli), crabgrass, large (large crabgrass, Digitaria sanguinalis), kochia (Kochia scoparia), ragweed (common ragweed, Ambrosia elatior), foxtail, giant (giant foxtail, Setaria faberii), morningglory (Ipomoea spp.), pigweed (Amaranthus retroflexus), velvetleaf (Abutilon theophrasti), ryegrass, Italian (Italian ryegrass, Lolium multiflorum), wheat (Triticum aestivum), and corn (Zea mays) were planted into a blend of loam soil and sand and treated preemergence with a directed soil spray using test chemicals formulated in a non-phytotoxic solvent mixture which included a surfactant.
(§3) At the same time, plants selected from these crop and weed species and also blackgrass (Alopecurus myosuroides), and galium (catchweed bedstraw, Galium aparine), were planted in pots containing the same blend of loam soil and sand and treated with postemergence applications of test chemicals formulated in the same manner. Plants ranged in height from 2 to 10 cm and were in the one- to two-leaf stage for the postemergence treatment. Treated plants and untreated controls were maintained in a greenhouse for approximately 10 d, after which time all treated plants were compared to untreated controls and visually evaluated for injury. Plant response ratings, summarized in Table A, are based on a 0 to 100 scale where 0 is no effect and 100 is complete control. A dash (-) response means no test result.

[3] = test system: pigweed; assay: Test A preemergence; type: in vivo, Amaranthus retroflexus; conditions: 0 to 100 scale (0 no effect, 100 complete control)
Description: as §1

[4] = test system: barnyardgrass; assay: Test A postemergence; type: in vivo, Echinochloa crus-galli; conditions: 0 to 100 scale (0 no effect, 100 complete control), approx. 10 d
Description: as §1

[5] = test system: corn; assay: Test A postemergence; type: in vivo, Zea mays; conditions: 0 to 100 scale (0 no effect, 100 complete control), approx. 10 d
Description: as §1

[6] = test system: kochia; assay: Test A postemergence; type: in vivo, Kochia scoparia; conditions: 0 to 100 scale (0 no effect, 100 complete control), approx. 10 d
Description: as §2, §3

[7] = test system: wheat; assay: Test A postemergence; type: in vivo, Triticum aestivum; conditions: 0 to 100 scale (0 no effect, 100 complete control), approx. 10 d
Description: as §1

[8] = test system: ragweed; assay: Test A preemergence; type: in vivo, Ambrosia elatior; conditions: 0 to 100 scale (0 no effect, 100 complete control)
Description: as §2, §3

[9] = test system: kochia; assay: Test A preemergence; type: in vivo, Kochia scoparia; conditions: 0 to 100 scale (0 no effect, 100 complete control)
Description: as §2, §3

[10] = test system: pigweed; assay: Test A postemergence; type: in vivo, Amaranthus retroflexus; conditions: 0 to 100 scale (0 no effect, 100 complete control), approx. 10 d
Description: as §1

[11] = test system: barnyardgrass; assay: Test A preemergence; type: in vivo, Echinochloa crus-galli; conditions: 0 to 100 scale (0 no effect, 100 complete control)
Description: as §1

[12] = test system: ryegrass, Italian; assay: Test A preemergence; type: in vivo, Lolium multiflorum; conditions: 0 to 100 scale (0 no effect, 100 complete control)
Description: as §2, §3

[13] = test system: blackgrass; assay: Test A postemergence; type: in vivo, Alopecurus myosuroides; conditions: 0 to 100 scale (0 no effect, 100 complete control), approx. 10 d
Description: as §2, §3

[14] = test system: foxtail, giant; assay: Test A postemergence; type: in vivo, Setaria faberii; conditions: 0 to 100 scale (0 no effect, 100 complete control), approx. 10 d
Description: as §1

[15] = test system: ragweed; assay: Test A postemergence; type: in vivo, Ambrosia elatior; conditions: 0 to 100 scale (0 no effect, 100 complete control), approx. 10 d
Description: as §2, §3

[16] = test system: ryegrass, Italian; assay: Test A postemergence; type: in vivo, Lolium multiflorum; conditions: 0 to 100 scale (0 no effect, 100 complete control), approx. 10 d
Description: as §2, §3

Row | Structure (SMILES) | Plant response rating, Foxtail, Giant ([1]; 31 g ai/ha) | Plant response rating, Foxtail, Giant ([1]; 125 g ai/ha) | Plant response rating, Galium ([2]; 31 g ai/ha) | Plant response rating, Galium ([2]; 125 g ai/ha) | Plant response rating, Pigweed ([3]; 31 g ai/ha) | Plant response rating, Pigweed ([3]; 125 g ai/ha) | Plant response rating, Barnyardgrass ([4]; 31 g ai/ha) | Plant response rating, Barnyardgrass ([4]; 125 g ai/ha) | Plant response rating, Corn ([5]; 31 g ai/ha) | Plant response rating, Corn ([5]; 125 g ai/ha) | Plant response rating, Kochia ([6]; 31 g ai/ha) | Plant response rating, Kochia ([6]; 125 g ai/ha) | Plant response rating, Wheat ([7]; 31 g ai/ha) | Plant response rating, Wheat ([7]; 125 g ai/ha) | Plant response rating, Ragweed ([8]; 31 g ai/ha) | Plant response rating, Ragweed ([8]; 125 g ai/ha) | Plant response rating, Kochia ([9]; 31 g ai/ha) | Plant response rating, Kochia ([9]; 125 g ai/ha) | Plant response rating, Pigweed ([10]; 31 g ai/ha) | Plant response rating, Pigweed ([10]; 125 g ai/ha) | further results
1 | COc1nc(-c2ccc(OC(F)(F)F)cc2)nn1Cc1ccnc(C(F)(F)F)c1 [Compound 40] | 0 | 0 | 20 | 30 | 0 | 30 | 0 | 0 | 0 | 20 | 0 | 0 | 0 | 0 | 0 | 0 | 0 | 0 | 30 | 70 | Plant response rating, Barnyardgrass ([11]; 31 g ai/ha): 0; Plant response rating, Barnyardgrass ([11]; 125 g ai/ha): 0; Plant response rating, Ryegrass, Italian ([12]; 31 g ai/ha): 0; Plant response rating, Ryegrass, Italian ([12]; 125 g ai/ha): 0; Plant response rating, Blackgrass ([13]; 31 g ai/ha): 0; Plant response rating, Blackgrass ([13]; 125 g ai/ha): 0; Plant response rating, Foxtail, Giant ([14]; 31 g ai/ha): 0; Plant response rating, Foxtail, Giant ([14]; 125 g ai/ha): 0; Plant response rating, Ragweed ([15]; 31 g ai/ha): 0; Plant response rating, Ragweed ([15]; 125 g ai/ha): 0; Plant response rating, Ryegrass, Italian ([16]; 31 g ai/ha): 0; Plant response rating, Ryegrass, Italian ([16]; 125 g ai/ha): 0
2 | CCCOc1nc(-c2ccc(C(F)(F)F)cc2)nn1Cc1ccnc(C(F)(F)F)c1 [Compound 41] | 70 | 90 | 60 | 90 | 90 | 90 | 30 | 40 | 20 | 30 | 70 | 90 | 0 | 20 | 20 | 30 | 30 | 60 | 80 | 90 | Plant response rating, Barnyardgrass ([11]; 31 g ai/ha): 30; Plant response rating, Barnyardgrass ([11]; 125 g ai/ha): 40; Plant response rating, Ryegrass, Italian ([12]; 31 g ai/ha): 20; Plant response rating, Ryegrass, Italian ([12]; 125 g ai/ha): 40; Plant response rating, Blackgrass ([13]; 31 g ai/ha): 20; Plant response rating, Blackgrass ([13]; 125 g ai/ha): 30; Plant response rating, Foxtail, Giant ([14]; 31 g ai/ha): 30; Plant response rating, Foxtail, Giant ([14]; 125 g ai/ha): 50; Plant response rating, Ragweed ([15]; 31 g ai/ha): 50; Plant response rating, Ragweed ([15]; 125 g ai/ha): 70; Plant response rating, Ryegrass, Italian ([16]; 31 g ai/ha): 20; Plant response rating, Ryegrass, Italian ([16]; 125 g ai/ha): 30
